Assay results reported in patent US20260166021A1, “POLYMORPHIC FORMS OF A SOLUBLE EPOXIDE HYDROLASE INHIBITOR AND FORMULATIONS THEREOF” (EicOsis, LLC, priority 2022, published 2026).

Columns and labels:
Assay type in all cases: physicochemical
[1] = Thermal stress studies at 60° C. (XRD, HPLC); conditions: HPLC
Protocol: Briefly, 20 mg of solid Form A, B, C, D, E, F, G, and I were weighed into 7 mL glass vials. The vials were covered with tissue and stored in ovens set to 60° C. and ambient pressure. Following 1 and 7 days incubation, solid was collected for XRD analysis.
As shown in these figures, Forms B and C converted to Forms D and A, respectively, while the other forms remained unchanged.
The starting materials, intermediates (1 day of thermal stress), and products (7 days of thermal stress) were analyzed by H PLC. Representative chromatograms from the Form D thermal stress analyses are shown in FIGS. 81-83 (starting material, 1 day, and 7 day samples, respectively).

[2] = Hygroscopic analyses: stability at 75% relative humidity and 40° C. (XRD); conditions: open vial, after 4 and 14 days
Protocol: To further evaluate physical stability, Form D was tested for stability in humid conditions. […] FIG. 84 summarizes XRD analyses used to monitor the polymorph over the 14-day experiment. In this figure, the top panel provides a representative XRD spectrum of Form D, the second from the top panel is an XRD spectrum of the starting material, the third from the top panel is an XRD spectrum of the starting material after 4 days of humidity exposure, and the bottom panel is an XRD spectrum of the starting material after 14 days of humidity exposure.

[3] = PEG-stability analyses: Form C/Form D mixture slurried in PEG300 with water; conditions: 1:1 mixture of Forms C and D slurried in PEG300; XRD
Protocol: Of particular interest was whether Form D would convert to a hydrate (e.g., Form C) in the presence of water. To investigate the critical water concentration for phase interconversion between Pattern C and D, a series experiments were designed (as summarized in TABLE 16). A 1:1 mixture of Forms C and D was prepared and slurried in PEG 300 with different levels of water concentrations. Phase transformations were monitored with XRD, and are summarized in FIG. 85, which (from top to bottom) provides XRD of Form C, Form D, the mixture following incubation in PEG300 containing 75% water, the mixture following incubation in PEG300 containing 50% water, the mixture following incubation in PEG300 containing 25% water, the mixture following incubation in PEG300 containing 10% water, and the mixture following incubation in PEG300 containing 5% water. […] Form D is the stable form in PEG300 with less than 50% water.

[4] = Chemical stability in pH media (HPLC impurities)
Protocol: For the pH stability analyses, approximately 2-3 mg Form D was incubated in 1.0 mL of aqueous pH 1.0 (0.1 M HCl), pH 6.8 (water adjusted using 0.1 M NaOH and 0.1 M HCl), and pH 10.0 solutions.

[5] = Particle size analysis (Malvern particle sizer, dry method; optical microscopy)
Protocol: Particle size was first analyzed with optical microscopy.
Particle size was also analyzed with a dry-method using a Malvern 300 particle sizer equipped with a standard energy venturi and utilizing 2.5 bar, 3.0 bar, and 3.5 bar air pressure. […] One possible explanation is that the insufficient energy was provided to break up particle agglomerations.
Based on these findings, particle size analysis was repeated at 2.5, 3.0, and 3.5 bar using a higher energy venturi to ensure the break-up of the potential agglomerates. The detailed particle sizing data using high-energy venturi are summarized in TABLE 26 and in FIGS. 114-119, with FIGS. 114-116 corresponding to 2.5, 3.0, and 3.5 bar analyses of unmilled Form D and FIGS. 117-119 corresponding to 2.5, 3.0, and 3.5 bar analyses of micronized Form D, respectively. While the data remained bimodal, indicating incomplete break-up of particle agglomerates, the D90 of micronized material measured below 6 μm, in closer agreement with the optical analyses.

[6] = Thermal gravimetric analysis (TGA); conditions: below 150° C.
Protocol: Thermal gravimetric analyses were performed on each sample “as is.” Unless otherwise noted, samples were weighed in an alumina crucible and analyzed from 30-350° C. at 10° C./min.
Form C weight loss at 39° C.-50° C. likely reflected methanol loss.

[7] = milled (micronized), 2.5 bar air pressure, high-energy venturi
[8] = milled (micronized), 2.5 bar air pressure, standard energy venturi
[9] = milled (micronized), 3.0 bar air pressure, high-energy venturi
[10] = milled (micronized), 3.0 bar air pressure, standard energy venturi
[11] = milled (micronized), 3.5 bar air pressure, high-energy venturi
[12] = milled (micronized), 3.5 bar air pressure, standard energy venturi
[13] = unmilled, 2.5 bar air pressure, high-energy venturi
[14] = unmilled, 2.5 bar air pressure, standard energy venturi
[15] = unmilled, 3.0 bar air pressure, high-energy venturi
[16] = unmilled, 3.0 bar air pressure, standard energy venturi
[17] = unmilled, 3.5 bar air pressure, high-energy venturi
[18] = unmilled, 3.5 bar air pressure, standard energy venturi

Which results are given for `CC[C@H](C)C(=O)N1CCC(NC(=O)Nc2ccc(OC(F)(F)F)c(F)c2)CC1` [Form D, (S)-1-(3-fluoro-4-(trifluoromethoxy)phenyl)-3-(1-(2-methylbutanoyl)piperidin-4-yl)urea]?
Day 1 % AUC ([1]; 60° C.): 100%; Day 7 % AUC ([1]; 60° C.): 100%; Initial % AUC ([1]; before thermal stress): 100%; polymorph stability in humid conditions [2]: unchanged; critical water concentration for phase interconversion between Pattern C and D [3]: 50%; Impurity, % (Day 4) ([4]; 50° C., pH 1.0): None Detected; Impurity, % (Day 7) ([4]; 50° C., pH 1.0): None Detected; Impurity, % (Day 4) ([4]; 50° C., pH 6.8): None Detected; Impurity, % (Day 7) ([4]; 50° C., pH 6.8): None Detected; Impurity, % (Day 4) ([4]; 50° C., pH 10.0): None Detected; Impurity, % (Day 7) ([4]; 50° C., pH 10.0): None Detected; Impurity, % (Day 4) ([4]; Room Temperature, pH 1.0): None Detected; Impurity, % (Day 7) ([4]; Room Temperature, pH 1.0): None Detected; Impurity, % (Day 4) ([4]; Room Temperature, pH 6.8): None Detected; Impurity, % (Day 7) ([4]; Room Temperature, pH 6.8): None Detected; Impurity, % (Day 4) ([4]; Room Temperature, pH 10.0): None Detected; Impurity, % (Day 7) ([4]; Room Temperature, pH 10.0): None Detected; impurities after incubation in pH media ([4]; aqueous pH 1.0, pH 6.8, pH 10.0, 4 or 7 days, room temperature or 50° C.): No impurities were detectable; D10 [5, 7]: 0.46 μm; D50 [5, 7]: 1.52 μm; D90 [5, 7]: 5.80 μm; PSD Modal [5, 7]: Bimodal; D10 [5, 8]: 0.56 μm; D50 [5, 8]: 1.85 μm; D90 [5, 8]: 45.9 μm; PSD Modal [5, 8]: Bimodal; D10 [5, 9]: 0.46 μm; D50 [5, 9]: 1.47 μm; D90 [5, 9]: 5.42 μm; PSD Modal [5, 9]: Bimodal; D10 [5, 10]: 0.55 μm; D50 [5, 10]: 1.80 μm; D90 [5, 10]: 47.4 μm; PSD Modal [5, 10]: Bimodal; D10 [5, 11]: 0.44 μm; D50 [5, 11]: 1.51 μm; D90 [5, 11]: 5.44 μm; PSD Modal [5, 11]: Bimodal; D10 [5, 12]: 0.54 μm; D50 [5, 12]: 1.69 μm; D90 [5, 12]: 29.4 μm; PSD Modal [5, 12]: Bimodal; D10 [5, 13]: 5.24 μm; D50 [5, 13]: 22.0 μm; D90 [5, 13]: 55.8 μm; PSD Modal [5, 13]: Bimodal; D10 [5, 14]: 8.66 μm; D50 [5, 14]: 34.5 μm; D90 [5, 14]: 79.3 μm; PSD Modal [5, 14]: Unimodal; D10 [5, 15]: 4.47 μm; D50 [5, 15]: 20.1 μm; D90 [5, 15]: 54.8 μm; PSD Modal [5, 15]: Bimodal; D10 [5, 16]: 8.26 μm; D50 [5, 16]: 35.0 μm; D90 [5, 16]: 91.2 μm; PSD Modal [5, 16]: Unimodal; D10 [5, 17]: 2.84 μm; D50 [5, 17]: 17.2 μm; D90 [5, 17]: 51.1 μm; PSD Modal [5, 17]: Bimodal; D10 [5, 18]: 7.37 μm; D50 [5, 18]: 33.1 μm; D90 [5, 18]: 78.6 μm; PSD Modal [5, 18]: Unimodal; TGA: wt change [6]: No wt change below
